This is an account of results in paper PMC11807261 (ACS infectious diseases, 2022).

Data set [1] addresses T1, Mtb GlnA1 (Mycobacterium tuberculosis, UniProt P9WN39).
T1 construct: His6 (N); made in house; host or cells: E. coli BL21(DE3)
The experiment in a line: biochemical.

Data set [2] addresses recombinant human glutamine synthetase (GS) (Homo sapiens, UniProt P15104). The experiment in a line: biochemical. Conditions: for inhibition of recombinant human GS: LIN at 100 µM (Figure S7). Type of data set: biochemical.
For data set [3], the system named is Mtb H37Rv. Type of data set: cell-based, Mycobacterium tuberculosis.
The nature of data set [4]: Cytotoxicity (CC50). Type of data set: cell-based. Conditions: African green monkey, Vero E6 cells.
Data set [5] has as its system THP-1 macrophages. Type of data set: cell-based.
Data set [6] deals with Mtb H37Rv within THP-1 macrophages. Type of data set: cell-based, Mycobacterium tuberculosis.
Where [7] appears, read: compounds directly from MMV Pathogen Box library plates, read-out: IC50 (μM), library.
The mark [8] stands for this setting: compounds resupplied from MMV, mean ± SE (n=3), read-out: IC50 (μM), resupply.

Each structure is given as a SMILES string. “Also recorded” adds a separate entry of the source. Like-named read-outs stand apart in the source and are kept apart here.

A word on the IC50: it is the concentration needed to halve the response being measured. A word on the CC50: it is the concentration giving 50% cytotoxicity.

Chain of recombinant human glutamine synthetase (GS) (P15104 whole entry): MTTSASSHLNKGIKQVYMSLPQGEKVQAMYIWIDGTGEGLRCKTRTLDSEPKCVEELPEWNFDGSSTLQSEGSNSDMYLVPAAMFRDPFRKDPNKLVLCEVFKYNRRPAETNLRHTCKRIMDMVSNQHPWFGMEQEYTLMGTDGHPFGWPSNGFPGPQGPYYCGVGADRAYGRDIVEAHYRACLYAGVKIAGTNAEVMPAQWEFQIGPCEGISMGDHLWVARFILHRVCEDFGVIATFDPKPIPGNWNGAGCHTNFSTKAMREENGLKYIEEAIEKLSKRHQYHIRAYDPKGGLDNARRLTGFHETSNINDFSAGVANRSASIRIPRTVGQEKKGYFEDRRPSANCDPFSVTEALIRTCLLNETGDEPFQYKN
T1 sequence (P9WN39 whole entry): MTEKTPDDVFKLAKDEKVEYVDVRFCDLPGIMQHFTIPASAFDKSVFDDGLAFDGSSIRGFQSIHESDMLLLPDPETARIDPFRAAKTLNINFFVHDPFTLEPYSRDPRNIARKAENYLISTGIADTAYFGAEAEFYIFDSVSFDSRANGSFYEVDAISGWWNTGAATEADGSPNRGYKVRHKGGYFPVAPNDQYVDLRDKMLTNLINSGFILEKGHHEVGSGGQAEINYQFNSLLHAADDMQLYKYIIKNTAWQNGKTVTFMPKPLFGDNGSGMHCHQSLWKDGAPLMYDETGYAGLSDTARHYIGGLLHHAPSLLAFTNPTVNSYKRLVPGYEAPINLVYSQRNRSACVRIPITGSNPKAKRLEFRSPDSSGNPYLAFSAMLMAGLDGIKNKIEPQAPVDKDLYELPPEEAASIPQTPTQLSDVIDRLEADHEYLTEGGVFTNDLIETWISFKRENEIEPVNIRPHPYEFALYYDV

Take `Cc1nc(-c2ccccn2)nc(N2CCC(Cc3ccccc3)C2)c1Cl` (stereo not shown) [MMV659004]: the half-inhibitory concentration (IC50) stood at 1.14 µM in data set [1] (setting [7]) and 0.66 ± 0.04 µM in data set [1] (setting [8]).
Consider `C[C@]1(O)C[C@@H](c2nc(-c3ccc4ccc(-c5ccccc5)nc4c3)c3c(N)nccn32)C1` [LIN, linsitinib], for which the “inhibition of recombinant human GS” value in data set [2] is “did not inhibit; also recorded: does not inhibit”. For the same molecule, the “growth inhibition concentration (GIC)” value in data set [3] is recorded as ~ 21 μM. In data set [4], this molecule gave a CC50 of 67500 nM. In addition, in data set [5], the “level of mTOR phosphorylation” value is listed as “reduce the level of mTOR phosphorylation” and the “level of p62 (autophagy flux)” value is listed as “seemingly reduced”. In addition, in data set [5] (10 μM LIN, Western blotting), the “apoptosis induction (cleaved caspase 3)” value was “no apoptosis induction” and the “autophagy induction (LC3B-II converted from LC3B-I)” value is recorded as “induced autophagy”. Moreover, the “autophagosome and autolysosome forming puncta” value in data set [5] (mRFP-GFP-LC3 reporter THP-1, 10 μM LIN 24 h, Mtb-infected and uninfected) is recorded as “elevated”. Moreover, in data set [6], the “intracellular Mtb killing in combination with bedaquiline (CFU)” value is “eliminated more intracellular Mtb and improved the killing effect of BDQ”; the “survival of intracellular Mtb (CFU)” value is listed as “significantly decreased the survival”.
With `CC(C)(CN)c1nc(-c2ccc(Cl)c(O)c2)c(-c2ccnc(N)n2)[nH]1` [MMV030734], the IC50 in data set [1] (setting [7]) turned out to be 1.38 µM; in data set [1] (setting [8]), 1.84 ± 0.09 µM.
Turning to `COc1ccc2cc(-c3nc(C(C)(C)C)[nH]c3-c3ccnc(N)c3)ccc2c1` [11a], the “inhibition of recombinant human GS” value in data set [2] was “did inhibit it considerably”. For the same molecule, the IC50 is about 10400 nM in data set [2] (malachite green assay, read-out: IC50 against human GS) and 0.53 ± 0.027 µM in data set [1].
Turning to `Cc1ccc(NC(=O)c2nc[nH]c2C(=O)Nc2nc3ccccc3[nH]2)c(C)c1` [MMV011903], the IC50 in data set [1] (setting [7]) was determined as 0.78 µM; in data set [1] (setting [8]), 1.63 ± 0.2 µM.
For the molecule `c1ccc(-c2nc(NC3CCCCC3)cc(C3CC3)n2)nc1` [MMV021013], the 50% inhibitory concentration (IC50) in data set [1] (setting [7]) stood at 0.69 µM; in data set [1] (setting [8]), 0.69 ± 0.08 µM.
In data set [1], `CP(=O)(O)CCC(N)C(=O)O` (racemic) [PPT, DL-phosphinothricin] displayed an IC50 of 4.45 ± 0.19 µM.
